What all share (test): growth of human tumour cells (NCI), 48 h
Assay [1] has as its system SW-620 colon.
Assay [2] has as its system ACHN renal.
Assay [3] has as its system NCI-H522 lung.
In assay [4] the test system is 786-0 renal.
For assay [5], the system named is SF-295 CNS.
The test system of assay [6] is RXF 393 renal.
Assay [7] deals with PC-3 prostate.
The subject of assay [8] is MOLT-4 leukemia.
For assay [9], the system named is SK-MEL-28 melanoma.
Assay [10] has as its system SK-OV-3 ovarian.

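Assay format: 96-well plates, 48-hour exposure. GI50: concentration for 50% inhibition of growth. Definition used: TGI = concentration required for complete inhibition of growth.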 A value given as a limit tells only on which side of the number the result lay.

As to `CC(=O)N(O)c1ccc(-c2nc3ccccc3s2)cc1`, the TGI was above 100 µM in assay [1]; above 100 µM in assay [2]; 97.2 µM in assay [3]; above 100 µM in assay [4]; above 100 µM in assay [5]; above 100 µM in [6]. The TGI in assay [7], in assay [8] and in [9] was above 100 µM in each case.
For `C[C@H](C/C=C/C(C)(C)O)[C@H]1CC[C@@]2(C)[C@@H]3CC[C@H]4C(C)(C)[C@@H](O)CC[C@@]45C[C@@]35CC[C@]12C`, the TGI in assay [1] was 65.4 µM; in assay [2], 18.9 µM; in assay [3], 15.4 µM; in assay [4], 46.5 µM; in assay [5], 30.2 µM; in [7] it was 65.1 µM. Also, the values for the TGI in assay [8], in [9] and in assay [10] were 32.8 µM, 37.8 µM and above 100 µM, respectively.
Consider `CCOC(=O)C1=C(C)N(c2ccc(OC)cc2)C2(O)C=CC(=O)C3=C(O)c4ccccc4C(=O)C312` (centres undefined), for which the TGI amounted to 29.8 µM in assay [1]; 39.3 µM in [2]; 11.9 µM in assay [3]; 29.3 µM in [5]; 24.4 µM in assay [7]; 20.5 µM in assay [8]. The same molecule showed a TGI in assay [10] of 31.1 µM.
In the case of `O=C1Nc2ccccc2Nc2ccncc21`, the TGI in assay [1], in assay [3], in assay [5], in [6], in [8] and in assay [9] was above 100 µM each time. The TGI in assay [10] is above 100 µM.
As to `O=C(NC(=S)NC(=O)c1cc(O)c(O)c(O)c1)c1cc(O)c(O)c(O)c1`, the TGI is above 100 µM in [1]; 44.9 µM in [2]; 70.3 µM in assay [3]; 40.2 µM in assay [4]; 46.3 µM in assay [5]; 41.5 µM in [6]. Moreover, the TGI in assay [7] was 39.8 µM; in assay [9], 73.9 µM; in assay [10], above 100 µM.
Regarding `Cc1nc2ccccc2c(/C=C/c2ccc(Cl)cc2)c1C(=O)/C=C/c1ccc(Cl)cc1`, the GI50 in assay [3] is 1.25 µM; in [6], 1.52 µM; in assay [8] it was 0.788 µM; in assay [9] it was 1.67 µM. Also, the TGI in [3] is 4.77 µM; in assay [6] it was 3 µM; in [8], above 100 µM; in assay [9], 3.12 µM.
Consider `CC(=O)Oc1ccc(/C=C/C(=O)O[C@@H](C(=O)O)[C@@H](OC(=O)/C=C/c2ccc(OC(C)=O)c(OC(C)=O)c2)C(=O)O)cc1OC(C)=O`, for which the TGI in assay [1], in assay [2], in assay [3], in assay [4], in assay [5] and in assay [6] was above 100 µM each time. For the same molecule, the TGI in assay [7], in assay [9] and in assay [10] was above 100 µM throughout.
As to `CCc1ccccc1NNc1cc(=O)[nH]c(=O)[nH]1`, the TGI in assay [1] was 37.3 µM; in assay [2], 32.7 µM; in [4], 32.5 µM; in assay [5], 36.2 µM; in assay [6], 40.1 µM; in assay [7] it was 32.8 µM. The TGI is 85.7 µM in assay [8], 38 µM in assay [9] and 64.8 µM in [10].
As to `Cc1ccccc1NC(=O)Cc1csc2[n+]1C(=O)/C(=C/c1ccc([N+](=O)[O-])cc1)S2`, the TGI in assay [1], in assay [2], in assay [4], in assay [5], in assay [7] and in assay [8] was above 100 µM each time. Besides, the TGI in [9] and in assay [10] was above 100 µM throughout.
As for `COc1ccc(-n2sc3ncccc3c2=O)cc1`, the TGI in assay [1] was 79.6 µM; in [2], 34.5 µM; in [3], 46.4 µM; in assay [4], 32.3 µM; in [5], above 100 µM; in assay [7], 53.5 µM. For the same molecule, the TGI was above 100 µM in assay [8], 44.3 µM in [9] and above 100 µM in assay [10].
Turning to `CCN(CC)c1ccc(/C=C/C=C2C(=O)NC(=S)NC2=O)cc1`, the TGI in [1] is above 100 µM; in assay [2] it was above 100 µM; in [4], above 100 µM; in assay [5], above 100 µM; in assay [6], 45.2 µM; in [7], above 100 µM. Moreover, the TGI in assay [8], in assay [9] and in [10] was above 100 µM in each case.
With `O=C(CCc1ccccc1)On1c(-c2ccccc2)nc2ccccc2c1=S`, the TGI in assay [1] is above 100 µM; in assay [2] it was above 100 µM; in [4] it was above 100 µM; in [5], above 100 µM; in [6], 57.3 µM; in assay [7] it was 56.3 µM. Also, the values for the TGI in [8], in [9] and in [10] were 23.3 µM, above 100 µM and above 100 µM, respectively.
Take `COc1cccc(/C=N/[N-]C(N)=O)c1[O-].[Cu+2].[OH3+].c1ccc(-c2ccccn2)nc1`: the TGI was above 100 µM in assay [1]; 98.9 µM in assay [2]; 28.4 µM in [3]; 36.6 µM in [4]; above 100 µM in assay [5]; 40.8 µM in [6]. Further, the TGI is above 100 µM in assay [8], 41.2 µM in assay [9] and 27.3 µM in assay [10].
For `COc1ccc(C(C2=C(O)COC2=O)c2cc3c(cc2O)OCO3)cc1OC` (centres undefined), the TGI in [1], in assay [2], in assay [4], in assay [5], in assay [6] and in [7] was above 100 µM each time. The TGI in assay [8], in assay [9] and in assay [10] was above 100 µM throughout.
For the molecule `COc1ccc(/C=C/C2=NN(c3cccc(S(=O)(=O)O)c3)C3(C2)SCC(=O)N3c2nc3ccccc3s2)cc1` (centres undefined), the TGI in assay [1], in assay [2], in assay [3], in assay [4], in assay [6] and in [7] was above 100 µM throughout. In addition, the TGI in assay [8] and in assay [9] was above 100 µM throughout.
For `COc1ccccc1C[C@@H]1OC2(C=CC(=O)C=C2)O[C@H]1Cc1ccccc1OC`, the TGI in assay [1] came to 5.98 µM; in assay [2], 17.7 µM; in [4] it was 4.29 µM; in assay [5], 22.9 µM; in [6] it was 3.81 µM; in assay [7], 20.6 µM. The TGI in assay [8] was above 50 µM; in [9] it was 16.1 µM; in assay [10], 24.5 µM.
In the case of `Cc1nc2c(=S)n(C)ncc2[nH]1`, the TGI in assay [1], in [2], in assay [3], in assay [4], in [5] and in [7] was above 100 µM each time. Moreover, the TGI in assay [8], in assay [9] and in assay [10] was above 100 µM in each case.
`C[C@H]1S[C@H](c2c(Cl)cccc2Cl)N2Cc3ccccc3N=C12`: the TGI in [1] is above 100 µM; in assay [2], 26.5 µM; in assay [4], 23 µM; in [5], 21.9 µM; in assay [6] it was 30.4 µM; in assay [7], 37.7 µM. For the same molecule, the TGI in assay [8] was above 100 µM; in assay [10], 38.3 µM.
For the molecule `O=C(CCc1ccccc1)ON1C(=S)C(c2ccccc2)(c2ccccc2)N=C1Sc1ccccc1`, the TGI in [2] was above 100 µM; in assay [4], above 100 µM; in [5] it was above 100 µM; in assay [6], above 100 µM; in assay [7], above 100 µM; in [8], 28.6 µM. This molecule showed a TGI in assay [10] above 100 µM.
Turning to `S=C(Nc1ccc2cn[nH]c2c1)Nc1ccc2cn[nH]c2c1`, the TGI in [1], in [2], in assay [3], in assay [4], in assay [5] and in [6] was above 100 µM in each case. Also, the TGI in assay [7], in [9] and in [10] was above 100 µM in each case.
As to `O=C(Nc1ccccc1)c1cc(S(=O)(=O)N2CCNNC2=O)c(S)cc1Cl`, the TGI in assay [1] was above 100 µM; in [2], above 100 µM; in [3], above 100 µM; in assay [4], above 100 µM; in assay [5], above 100 µM; in assay [6], 74.4 µM. Besides, the TGI in assay [7], in [8] and in assay [9] was above 100 µM each time.
As to `CC1C(c2ccc(Cl)cc2)c2cc3c(cc2OC1N1CCOCC1)OCO3` (centres undefined), the TGI in assay [1], in assay [2], in assay [3], in assay [4], in [5] and in assay [7] was above 100 µM each time. In addition, the TGI in assay [8] and in [9] was above 100 µM each time.
For the molecule `CC(=O)[CH-]C(=O)c1ccccc1.CC(=O)[CH-]C(=O)c1ccccc1.C[C@]12CCC(=O)C=C1CC[C@@H]1C2CC[C@@]2(C)C1CC[C@]2(C)[O-].C[C@]12CCC(=O)C=C1CC[C@@H]1C2CC[C@@]2(C)C1CC[C@]2(C)[O-].Cl.[Ti+4]` (some centres undefined), the GI50 in assay [1] was 3.91 µM; in assay [2] it was 21.6 µM; in [3], 11.4 µM; in [5], 18.4 µM; in [8], 12.5 µM; in [9], 11.5 µM. The GI50 in [10] is 23.4 µM. For the same molecule, the TGI in assay [1] was 30 µM; in assay [2], 87.8 µM; in assay [3], 35.7 µM; in assay [5], 57.3 µM; in [8] it was above 100 µM; in assay [9], 43 µM. Moreover, the TGI in [10] is 53.1 µM.
Regarding `COC(=O)c1ccc(Nc2nc3nc[nH]c3c(=O)[nH]2)cc1`, the TGI in assay [1], in [2], in assay [3], in assay [4], in assay [5] and in assay [7] was above 100 µM in each case. Also, the TGI in assay [8], in [9] and in assay [10] was above 100 µM throughout.
Regarding `Cc1cc(=O)[nH]c(NN2C(Cl)C(=O)C2c2cccc(Cl)c2)n1` (centres undefined), the TGI in assay [1] is above 100 µM; in [2] it was above 100 µM; in assay [6] it was 23.2 µM; in assay [8] it was 40.7 µM; in [9], above 100 µM.
Regarding `CCN(CC)c1ccc2cc(C(=O)Nc3ccccn3)c(=N)oc2c1`, the TGI in [1], in [2], in assay [4], in assay [6], in assay [8] and in [9] was above 100 µM each time. In addition, the TGI in assay [10] is above 100 µM.
Consider `CC(C)(C)N(Cc1ccc2c(c1)OCO2)C(=O)/C=C\Sc1ccccc1`, for which the TGI in assay [1] was above 100 µM; in assay [2] it was above 100 µM; in assay [3] it was 59 µM; in assay [4], above 100 µM; in [5], above 100 µM; in assay [7], above 100 µM. Besides, the TGI in assay [8], in assay [9] and in assay [10] was above 100 µM throughout.
As to `C[C@@H]1S[C@H](c2c(Cl)cccc2Cl)N2Cc3ccccc3N=C12`, the TGI in [1], in [2], in [4], in assay [5], in assay [6] and in assay [7] was above 100 µM in each case. Also, the TGI in assay [8], in assay [9] and in assay [10] was above 100 µM throughout.
In the case of `COc1ccc2oc(=O)c(-c3csc(C)n3)cc2c1`, the TGI in assay [1] was above 100 µM; in assay [2], above 100 µM; in assay [4], above 100 µM; in assay [5], 40 µM; in assay [6] it was above 100 µM; in assay [7], above 100 µM. In addition, the TGI in [8] was above 100 µM; in assay [9], above 100 µM; in [10] it was 87.3 µM.
